Data: patent US7528274B2, “Acylthiols and component thiol compositions as anti-HIV and anti-retroviral agents” (The United States of America as represented by the …, priority 2001, dated 2009)
Like-named read-outs stand apart in the source and are kept apart here.

Assays:
HIV-1 virus = experiment: Infectivity of treated virions, PCR assay for intracellularly-synthesized viral RNA; assay type: cell-based
Text: The treated virions can also be tested for infectivity. The virions are suspended in media (rather than solubilized) and added to target cells. The cultures are then examined to determine whether the virions are still active. To determine whether the treated virus particles are active, the cells are monitored for the presence of intracellularly-synthesized viral RNA using, for example, the polymerase chain reaction (PCR) (Rice (1993) Proc. Natl. Acad. Sci. USA 90:9721; Turpin (1996) J. Virol. 70:6180). Alternatively, cytoprotection assays can be used (Weislow (1993) J. Natl. Cancer Inst. 81:577). An example of a compound which can be used as a control in the gel mobility shift assay is azodicarbonamide (ADA), a compound which is commercially available from the Aldrich Chemical Company (Milwaukee, Wis.).

cells [1] = experiment: XTT assay, cytotoxicity, HIV-1 1026040 section; assay type: cell-based
Text: (§1) One exemplary means to determine antiviral activity is with CEM-SS cells and virus (e.g., HIV-1RF) (MOI=0.01) using the XTT {2,3-bis[2-methoxy-4-nitro-5-sulfophenyl]-5- -[(phenylamino)carbonyl]-2H-tetrazolium hydroxide} cytoprotection assay, as described by Rice (1993) Proc. Natl. Acad. Sci. USA 90: 9721-9724, and Rice (1997) Antimicrob. Agents & Chemother. […] Briefly, cells are infected with HIV-1RF (or other virus to be tested) in the presence of various dilutions of test compounds and controls. The cultures are incubated for seven days. […] The cell death is measured by XTT dye reduction. XTT is a soluble tetrazolium dye that measures mitochondrial energy output, similar to MTT. […] Individual assays are done in duplicate using a sister plate method. […] Compound numbers therein refer to the numbers used in FIG. 1.

SIV (Mac 251) = experiment: XTT cytoprotection assay, SIV (Mac 251); assay type: cell-based
Text: as §1

HIV-2 (Rod) = experiment: XTT cytoprotection assay, HIV-2 (Rod/CEM-SS); assay type: cell-based
Text: as §1

PBMCs [2] = experiment: XTT assay, cytotoxicity, HIV-1 (RoJo/PBMCs) section; assay type: cell-based
Text: as §1

cells [3] = experiment: XTT assay, cytotoxicity, SIV (Mac 251) section; assay type: cell-based
Text: as §1

PBMCs [4] = experiment: XTT assay, cytotoxicity, HIV-1 144-44/PBMCs section; assay type: cell-based
Text: as §1

[5] = test system: HIV-1 144-44 (mutation L10I/M46I/I54V/L63P/A71V/V82A/L90M); experiment: XTT assay against drug resistant mutant HIV-1 144-44 in PBMCs; assay type: cell-based; conditions: HIV-1 144-44/PBMCs
Text: as §1

[6] = test system: HIV-1 1026040 (mutation V32I/M46I/L63P/L90M); experiment: XTT assay against drug resistant mutant HIV-1 1026040; assay type: cell-based
Text: as §1

HIV-1 (RoJo) = assay type: cell-based; conditions: HIV-1 (RoJo/PBMCs)
Text: as §1

CEM-SS = experiment: XTT assay, cytotoxicity, HIV-2 (Rod/CEM-SS) section; assay type: cell-based
Text: as §1

[7] = test system: HIV transgenic mouse model spleen cells; experiment: Cytotoxicity, HIV transgenic mouse model spleen cells; assay type: cell-based
Text: (§2) One of the advantages of the compounds of the present invention over previously identified antiretroviral agents is their increased hydrolytic stability, which improves their biological activity and reduces the amount of compound that must be delivered to a treated subject to produce the desired effect. […] A PATE compound having the following structure is included: […]

[8] = Hydrolysis assay (relative rates of hydrolysis); assay type: in vitro ADME
Text: as §2

[9] = XTT assay, cytotoxicity (cellular growth inhibition) in CEM-SS cells; assay type: cell-based; conditions: human
Text: (§3) One exemplary means to determine antiviral activity is with CEM-SS cells and virus (e.g., HIV-1RF) (MOI=0.01) using the XTT (2,3-bis[2-methoxy-4-nitro-5-sulfophenyl]-5-[(phenylamino)carbonyl]-2H-tetrazolium hydroxide) cytoprotection assay, as described by Rice (1993) PNAS 90:9721-9724, and Rice (1997) Antimicrob. Agents Chemother. […] Briefly, cells are infected with HIV-1RF (or other virus to be tested) in the presence of various dilutions of test compounds or control compounds. The cultures are incubated for seven days. […] The cell death is measured by XTT dye reduction. XTT is a soluble tetrazolium dye that measures mitochondrial energy output, similar to MTT. […] Individual assays are done in duplicate using a sister plate method.
as §1

HIV p24 = experiment: p24 inhibition ELISA assay, HIV transgenic mouse model spleen cells; assay type: cell-based; conditions: for EC50: Human immunodeficiency virus 1; for Therapeutic Index: p24 inhibition ELISA, HIV transgenic mouse model spleen cells
Text: as §2

HIV-1RF = experiment: XTT cytoprotection assay, CEM-SS cells infected with HIV-1RF; assay type: cell-based; conditions: HIV-1RF, CEM-SS cells; for EC50: read-out: EC50 (50% cytoprotection), seven days, XTT
Text: as §3, §1

CEM-SS cells = experiment: XTT assay, cytotoxicity (cellular growth inhibition) in CEM-SS cells; assay type: cell-based; conditions: read-out: IC50 (50% cytotoxicity)
Text: as §3, §1

[10] = Human immunodeficiency virus 1, 168 h

Row | Structure (SMILES) | EC50 (HIV-1RF; [10]) | half-life [8] | IC50 at 7 days [9] | EC50 (HIV p24) | Therapeutic Index (HIV-1RF) | further results
1 | NC(=O)N=NC(N)=O [ADA, azodicarbonamide] |  |  |  |  |  | Inactivation of HIV-1 virus (HIV-1 virus): inactivates HIV-1 virus
2 | Cc1cn([C@H]2C[C@H](N=[N+]=[N-])[C@@H](CO)O2)c(=O)[nH]c1=O [AZT, 3′-azido-2′, 3′-dideoxythymidine, reference compound] |  |  |  |  |  | IC50 (cells [1]): > 1 µM; EC50 (SIV (Mac 251)): 0.02 µM; EC50 (HIV-2 (Rod)): 0.017 µM; IC50 (PBMCs [2]): > 4 µM; IC50 (cells [3]): > 1 µM; IC50 (PBMCs [4]): > 200 µM; EC50 [5]: 1.3 µM; TI [5]: >153; EC50 [6]: 0.006 µM; TI [6]: >167; EC50 (HIV-1 (RoJo)): 0.01 µM; IC50 (CEM-SS): > 1 µM
3 | COc1ccc(C(=O)Sc2ccccc2C(=O)NCCC(N)=O)cc1OC [Compound 11] | 6.9 µM | 4.07 h | 165 µM | 3.6 µM | 24 | IC50 [7]: > 250 µM; Therapeutic Index (HIV p24): >69
4 | COc1cc(OC)cc(C(=O)Sc2ccccc2C(=O)NCCC(N)=O)c1 [Compound 12] | 8.1 µM | 7.75 h | 102 µM | 3.5 µM | 13 | IC50 [7]: 136 µM; Therapeutic Index (HIV p24): 39
5 | Cc1ccccc1C(=O)Sc1ccccc1C(=O)NCCC(N)=O [Compound 22] | 9.7 µM | 6.8 h | 22 µM | 2.6 µM | 2.3 | IC50 [7]: 59 µM; Therapeutic Index (HIV p24): 23
6 | CC(C)(C)c1ccc(C(=O)Sc2ccccc2C(=O)NCCC(N)=O)cc1 [Compound 23] | 4.5 µM | > 8.33 h | 107 µM | 2.2 µM | 24 | IC50 [7]: 123 µM; Therapeutic Index (HIV p24): 56
7 | Cc1cccc(C(=O)NCCC(N)=O)c1SC(=O)c1ccccc1 [Compound 61] |  | 7.02 h |  | 15.7 µM |  | 
8 | NC(=O)C1CN1C(=O)c1ccccc1SC(=O)NC1CCCCC1 (centres unmarked) [Compound 129] |  |  |  |  |  | IC50 (cells [1]): > 200 µM; EC50 (SIV (Mac 251)): 0.29 µM; EC50 (HIV-2 (Rod)): 0.104 µM; IC50 (PBMCs [2]): 184 µM; IC50 (cells [3]): 21.8 µM; IC50 (PBMCs [4]): > 200 µM; EC50 [5]: 0.17 µM; TI [5]: >1168; EC50 [6]: 4 µM; TI [6]: >51; EC50 (HIV-1 (RoJo)): 3.8 µM; EC50 (HIV-1RF): 0.55 µM; IC50 (CEM-SS): 6.54 µM
9 | CC(C)(C)CC(C)(C)NC(=O)Sc1ccccc1C(=O)N1CC1C(N)=O (centres unmarked) [Compound 131] |  |  |  |  | 80 | IC50 (CEM-SS cells): 35.8 µM; EC50 (HIV-1RF): 0.45 µM

Continued, in another order:

Row | EC50 (HIV-1RF; [10]) | Structure (SMILES) | half-life [8] | IC50 at 7 days [9] | EC50 (HIV p24) | Therapeutic Index (HIV-1RF) | further results
10 | 0.7 µM | CSC(=N)Sc1ccccc1C(=O)N[C@@H](C)C(N)=O [Compound 136] |  | 20 µM |  | 28.6 | 
11 | 0.71 µM | CSC(=N)Sc1ccccc1C(=O)NCCC(N)=O [Compound 137] |  | 20 µM |  | 28.2 | 
12 | 0.63 µM | CSC(=N)Sc1ccccc1C(=O)NCC(N)=O [Compound 138] |  | 20 µM |  | 31.7 | 
13 | 0.53 µM | CSC(=N)Sc1ccccc1C(=O)N[C@H](C)C(N)=O [Compound 139] |  | 20 µM |  | 37.7 | 
14 | 1.6 µM | CC(C)(C)NC(=O)Sc1ccc(Cl)cc1C(=O)NCCC(N)=O [Compound 140] |  | 11.3 µM |  | 7.1 | 
15 | 1.13 µM | CC(C)COC(=O)Sc1ccc(Cl)cc1C(=O)NCCC(N)=O [Compound 141] |  | 20 µM |  | 17.7 | 
16 | 6.9 µM | CC(C)(C)NC(=O)Sc1ccccc1C(=O)NCC(N)=O [Compound 142] |  | 20 µM |  | 2.9 | 
